According to PMC11175440, “Exploring hydrophilic 2,2-di(indol-3-yl)ethanamine derivatives against Leishmania infantum” (PLOS ONE, 2024):
Values joined by “and” are separate entries in the source; they are usually repeats but may differ in a detail not shown here. Identical values can stand only once. “Also recorded” adds a separate entry of the source.

What was measured:
[1] = Formulation (solubility and stability) study of URB1483; assay type: physicochemical; details: for Solubility: 48-72 h at 37 °C
Procedure: Equivalence calculation between URB1483 concentration and injectable dose (mg/kg) […]
Considering an average mice weight of 25 g and an IP injectable volume of 100 μL, the following […]
correspondence can be considered:
[URB1483](mg/mL) = Dose (mg/kg) ∙ 0.025 (kg)
[URB1483](mM) = Dose (mg/kg) ∙0.025 (kg)
General procedure for the formulation study
To the indicated volume of the URB1483 stock solution in DMSO (25.0 mg/mL , 50.24 mM) were […]
added the appropriate volume or weight of excipient and the resulting mixture was heated at 37 °C […]
and sonicated for 10-20 min. Finally, distilled water was added to reach the final volume of 1 mL […]
(Table S1). The resulting formulation was ma intained at 37 °C under stirring for 48-72 h. At regular […]
time points, aliquots of the described formulations were sampled, centrifuged (8000 rpm, 10 min), […]
and two volumes of acetonitrile were added. After further centrifugation (8000 rpm, 10 min), the […]
resulted clear samples were analyzed by HPLC -ESI-MS for a percentage of the remaining compound.
URB1483 was considered soluble and stable in the formulation with more than 90% of the compoun d […]
Table S1 – Preliminary Formulation Study on URB1483[a]
Entry Final Dose Stock Solution URB1483 Volume Excipient Solubility[b]
2[c] 1 mg/kg 5 μL DMSO (95 μL) 🗶
3[c] 1 mg/kg 5 μL DMSO (195 μL) ✓
[a] DMSO = dimethylsulfoxide; PG = propylene glycol; PEG = polyethylene glycol; HPBC = 2-hydropropyl- […]
β-cyclodextrin. [b] URB1483 was considered soluble and stable with more than 90% of the compound […]
remaining unaltered after 48-72 h at 37 °C, by HPLC-ESI-MS analysis. [c] Instead of water, a physiological […]
solution (saline) was utilized.

[2] = system: L. infantum intracellular amastigotes; design: method as in PMID 34984300; details: compared with pentamidine; cited from earlier work
[3] = system: L. infantum MHOM/TN/80/IPT1 promastigotes; design: method as in PMID 34984300; details: read-out: IC50 against L. infantum promastigotes; cited from earlier work
[4] = system: THP-1 cells; design: method as in PMID 34984300; details: cited from earlier work
[5] = system: L. infantum (MHOM/MA/67/ITMAP-263) axenic amastigotes; experiment: In vivo anti-amastigote activity in BALB/c mice infection model (limiting dilution parasite burden); details: spleen, liver, bone marrow; URB1483 5 mg/kg/day IP in 60% PEG 400, 10 days; 5 mg/kg/day
Procedure: The compound URB1483 was selected for the in vivo evaluation on a BALB/c mice infection model. Six- to seven-week-old BALB/c mice were purchased from Charles River Laboratories (Barcelona, Spain) or the I3S (Porto, Portugal) animal facility. Luciferase-expressing L. infantum (MHOM/MA/67/ITMAP-263) axenic amastigotes were cultured in complete cell-free medium MAA/20 [20] at 37°C with 5% CO2. Five-day-old cultures of amastigotes were washed twice with PBS and resuspended at a concentration of 1×10^9 parasites/Ml. A total of 17 mice were infected with 100 μL of parasite suspension containing 1×10^8 parasites. The injection was performed intra-venously (IV) in the tails of mice, and treatments started 21 days post-infection for 10 consecutive days. Formulation studies are reported in the Supporting Information (S1 Table in S1 File). […]
Mice well-being-assessment was checked every two days, in terms of weight control and the presence of stress signs. […] Spleen and liver were weighted, and bone marrow cells were counted with automatic cell counter EVE^TM (NanoEnTek, Seul, Korea). […] For bone marrow, the number of parasites was calculated per 10^5 cells using the formula: [(geometric mean of reciprocal titer from each triplicate/number of cells) × reciprocal fraction of the cells inoculated into the first well]. […]

[6] = system: THP-1, DH82, HepG2, HaCaT and HPF cells; design: method as in PMID 34984300; details: cited from earlier work

CCOC(=O)c1c(C(=O)OC)cn(CC(c2cn(C)c3ccccc23)c2cn(C)c3ccccc23)c1C [URB1483]
water solubility [1]: Poorly soluble in water; also recorded: very poor water solubility; also recorded: poor water solubility
maximum injectable concentration ([1]; 60% PEG 400 in water, 1.25 mg/mL, mouse weight 25 g, injection volume 100 μL): 5 mg/kg
Solubility ([1]; entry 3: final dose 1 mg/kg, DMSO (195 μL), saline): ✓ (URB1483 was considered soluble and stable with more than 90% of the compound remaining unaltered after 48-72 h at 37 °C, by HPLC-ESI-MS analysis)
Solubility ([1]; entry 6: final dose 1 mg/kg, PG (600 mg), water): ✓ (URB1483 was considered soluble and stable with more than 90% of the compound remaining unaltered after 48-72 h at 37 °C, by HPLC-ESI-MS analysis)
Solubility ([1]; entry 9: final dose 1 mg/kg, PEG 400 (400 mg), water): ✓ (URB1483 was considered soluble and stable with more than 90% of the compound remaining unaltered after 48-72 h at 37 °C, by HPLC-ESI-MS analysis)
Solubility ([1]; entry 11: final dose 1 mg/kg, PEG 400 (500 mg), water): ✓ (URB1483 was considered soluble and stable with more than 90% of the compound remaining unaltered after 48-72 h at 37 °C, by HPLC-ESI-MS analysis)
Solubility ([1]; entry 12: final dose 2 mg/kg, PEG 400 (500 mg), water): ✓ (URB1483 was considered soluble and stable with more than 90% of the compound remaining unaltered after 48-72 h at 37 °C, by HPLC-ESI-MS analysis)
Solubility ([1]; entry 14: final dose 1 mg/kg, PEG 400 (600 mg), water): ✓ (URB1483 was considered soluble and stable with more than 90% of the compound remaining unaltered after 48-72 h at 37 °C, by HPLC-ESI-MS analysis)
Solubility ([1]; entry 15: final dose 2 mg/kg, PEG 400 (600 mg), water): ✓ (URB1483 was considered soluble and stable with more than 90% of the compound remaining unaltered after 48-72 h at 37 °C, by HPLC-ESI-MS analysis)
Solubility ([1]; entry 16: final dose 5 mg/kg, PEG 400 (600 mg), water): ✓ (URB1483 was considered soluble and stable with more than 90% of the compound remaining unaltered after 48-72 h at 37 °C, by HPLC-ESI-MS analysis)
Solubility ([1]; entry 19: final dose 1 mg/kg, HPBC (400 mg), water): ✓ (URB1483 was considered soluble and stable with more than 90% of the compound remaining unaltered after 48-72 h at 37 °C, by HPLC-ESI-MS analysis)
efficacy on in vitro infection model [2]: comparable to that of the commercial drug pentamidine
IC50 [3]: 3.7 µM and 4 µM
CC50 [4]: > 200 µM
selectivity index (SI) [4]: greater than 55
effect on parasite burden (in vivo efficacy) [5]: did not significantly reduce parasite burden; also recorded: No in vivo efficacy; also recorded: could not reduce parasite burden; also recorded: ineffective
toxicity on mammalian cell lines [6]: did not affect the viability; also recorded: No toxicity
